US20230096528A1, “Pharmaceutical Composition for Treatment or Prevention of Multiple Inflammatory disorders” (priority 2019, published 2023)

Key:
[1] = test system: mouse acute lung injury plus hyperthermia model; assay: Mouse acute lung injury plus hyperthermia model (Example 7); format: in vivo; details: LPS plus hyperthermia, CD-1 mice
Procedure: Lung lavage fluid was measured and cytokine analysis.

[2] = test system: mouse model of acute lung injury; assay: Second modified acute lung injury plus hyperthermia study (Example 8); details: for Tolerability of three days of repeat dosing: mouse, in vivo
Procedure: Lung lavage fluid was measured and cytokine analysis. Statistics was one-way ANOVA followed by Tukey's multiple comparison post hoc test for data with normal distribution; Kruskal-Wallis test followed by Dunn's multiple comparison post hoc test for data with skewed distribution; and the ROUT method for identifying outliers. Control or drug administered for 3 days, then LPS at 50 μL of 1 mg/ml delivered intratracheally with a Penn Century needle where a core temperature of 39 C at 24 hours post LPS and then sacrifice to measure lung lavage fluid protein concentration and serum cytokine levels.
The same procedure was used as in Example 7. Starting three days before the induction of lung injury, groups of six CD-1 mice each were treated prophylactically with vehicle or 92.4 mg/kg denatonium acetate (DA) (administered by twice-daily (BID) oral gavage (PO)) or with 3 mg/kg DA (administered by once-daily (QD) intraperitoneal (IP) injection). On Day 0, lung injury was induced by intratracheal instillation with 50 μL of 1 mg/mL bacterial lipopolysaccharide (LPS), and hyperthermia was induced by placing the animals in a 39° C. incubator. On Day 1 (i.e., 24 hours after induction), animals were euthanized and bronchoalveolar lavage fluid (BALF) was collected. The BALF specimens were assessed for cytokine concentrations (using a multiplex bead-based assay), and protein levels, and neutrophil counts (by fluorescence-activated cell sorting (FACS)). Additionally, lungs were collected, fixed, stained with Masson's trichrome, and assessed histologically.

[3] = test system: mouse peritoneum macrophages; assay: LPS-stimulated mouse peritoneal macrophages, cytokine analysis (Example 5); format: cell-based, mice
Procedure: This example provides an in vivo study to determine the effect of DA on mouse peritoneum macrophages. Peritoneal exudates were obtained from Balb/c female mice by lavage 4 days after an intraperitoneal injection of 4 ml sterile 4% thioglycollate broth. After washing with RPMI 1640 medium, the cell suspensions were centrifuged at 800 g at 4° C. for 5 min. The red blood cells were eliminated by ACK buffer and the cells were washed and resuspended in RPMI 1640 supplemented with 10% inactivated FBS, 10 mM HEPES, 2 mM glutamine, and 100 U/ml penicillin-[…] streptomycin. The peritoneal macrophages were plated in 24 well tissue culture plate (2×10^5 cells/mL/well) at 37° C. in a 5% CO2 humidified atmosphere. Macrophages were precultured in serum-free RPMI 1640 medium for 24 h to reduce mitogenic effects. Macrophages were pretreated with various concentrations of DA for 1 h prior to LPS treatment and stimulated with LPS (100 ng/mL) for 24 h. Treatment groups were: [table]

diet-induced (DIO) mice = assay: Body weight study in diet-induced (DIO) mice (Example 9); format: in vivo, C57BL/6NTac mice
Procedure: This example provides results of a study of DA plus another compound (CQL) on body weight in diet-induced (DIO) mice. Adult C57BL/6NTac mice were fed with a high fat diet (60%). […] The study period was for 56 days+2-3 days testing period afterward. Body weight change measure 3× per week, food and water consumption on days 0, 12, 28, 42 and 56. Metabolic biomarkers were measured on days 28 and 56. Cytokine analysis on Days 28 and 56. Serum levels of GLP-1, GLP-2, and CCK at 1 h after dosing on Days 1 and 56, and at 2 h after dosing on Day 7 (dosing (>6 h fasting prior to dosing until after blood collection); and serum level of PPY on Day 56.

[4] = oral 92.4 mg/kg BID, vs vehicle
[5] = DA 92.4 mg/kg gavage BID, vs vehicle
[6] = DA 92.4 mg/kg gavage BID, vs vehicle, no significant difference
[7] = gavage BID (DA 92.4 mg/kg, CQL 50 mg/kg)

## CC(=O)[O-].CC[N+](CC)(CC(=O)Nc1c(C)cccc1C)Cc1ccccc1 [DA, denatonium acetate]
[1]; iv bolus 3 mg/kg QD
  Protein concentration in lung lavage fluid: drastic but not significantly reduced
[1]; oral 92.4 mg/kg BID
  Protein concentration in lung lavage fluid: drastic but not significantly reduced
[2]; 92.4 mg/kg PO group, within 24 h after LPS instillation, also one vehicle-dosed, not attributed to test article
  Mice found dead on Day 1: one
[2]; IP 3 mg/kg QD
  BALF neutrophil counts (by FACS assay): nominal decreases
  BALF protein concentrations: nominal (but nonsignificant) changes
  Number of 32 tested BALF cytokines significantly decreased compared to vehicle: 10
  Severity of lung pathology (by histological scoring): nominal decreases
[2]; IP 3 mg/kg QD, vs vehicle
  G-CSF concentration in BALF: significant decreases
  IL2 concentration in BALF: significant decreases
  IL-3 concentration in BALF: significant decreases
  IL-4 concentration in BALF: significant decreases
  IL-13 concentration in BALF: significant decreases
  IP-10 concentration in BALF: significant decreases
  M-CSF concentration in BALF: significant decreases
  MCP-1 concentration in BALF: significant decreases
  MIG concentration in BALF: significant decreases
  eotaxin concentration in BALF: significant decreases
[2]; ip, 3 mg/kg
  Tolerability of three days of repeat dosing: well-tolerated
[2]; po, 92.4 mg/kg
  Tolerability of three days of repeat dosing: well-tolerated
[2]; oral 92.4 mg/kg BID
  BALF neutrophil counts (by FACS assay): nominal decreases
  BALF protein concentrations: nominal (but nonsignificant) changes
  Number of 32 tested BALF cytokines significantly decreased compared to vehicle: 7
  Severity of lung pathology (by histological scoring): nominal decreases
[2]; [4]
  IL-2 concentration in BALF: significant decreases
  IL-3 concentration in BALF: significant decreases
  IL-10 concentration in BALF: significant decreases
  IL-13 concentration in BALF: significant decreases
  MCSF concentration in BALF: significant decreases
  MIG concentration in BALF: significant decreases
[3]; DA 1 μM
  GM-CSF: Significance @24 hour LPS incubation: No sig
  IFNγ: Significance @24 hour LPS incubation: No sig
  IL-1α: Significance @24 hour LPS incubation: No sig
  IL-1β: Significance @24 hour LPS incubation: No sig
  IL-2: Significance @24 hour LPS incubation: No sig
  IL-4: Significance @24 hour LPS incubation: No sig
  IL-6: Significance @24 hour LPS incubation: No sig
  IL-7: Significance @24 hour LPS incubation: No sig
  IL-10: Significance @24 hour LPS incubation: No sig
  IL-12 (p70): Significance @24 hour LPS incubation: No sig
  IL-13: Significance @24 hour LPS incubation: No sig
  IL-17A: Significance @24 hour LPS incubation: No sig
  KC/CXCL1: Significance @24 hour LPS incubation: No sig
  LIX: Significance @24 hour LPS incubation: No sig
  MCP-1: Significance @24 hour LPS incubation: No sig
  MIP-2: Significance @24 hour LPS incubation: No sig
  TNF-α: Significance @24 hour LPS incubation: No sig
[3]; DA 10 μM
  GM-CSF: Significance @24 hour LPS incubation: no sig
  IFNγ: Significance @24 hour LPS incubation: no sig
  IL-1α: Significance @24 hour LPS incubation: no sig
  IL-1β: Significance @24 hour LPS incubation: no sig
  IL-2: Significance @24 hour LPS incubation: no sig
  IL-4: Significance @24 hour LPS incubation: no sig
  IL-6: Significance @24 hour LPS incubation: no sig
  IL-7: Significance @24 hour LPS incubation: no sig
  IL-10: Significance @24 hour LPS incubation: no sig
  IL-12 (p70): Significance @24 hour LPS incubation: no sig
  IL-13: Significance @24 hour LPS incubation: no sig
  IL-17A: Significance @24 hour LPS incubation: no sig
  KC/CXCL1: Significance @24 hour LPS incubation: no sig
  LIX: Significance @24 hour LPS incubation: no sig
  MCP-1: Significance @24 hour LPS incubation: no sig
  MIP-2: Significance @24 hour LPS incubation: no sig
  TNF-α: Significance @24 hour LPS incubation: no sig
[3]; DA 100 μM
  GM-CSF: Significance @24 hour LPS incubation: no sig
  IFNγ: Significance @24 hour LPS incubation: no sig
  IL-1α: Significance @24 hour LPS incubation: no sig
  IL-1β: Significance @24 hour LPS incubation: no sig
  IL-2: Significance @24 hour LPS incubation: no sig
  IL-4: Significance @24 hour LPS incubation: no sig
  IL-6: Significance @24 hour LPS incubation: no sig
  IL-7: Significance @24 hour LPS incubation: no sig
  IL-10: Significance @24 hour LPS incubation: no sig
  IL-12 (p70): Significance @24 hour LPS incubation: no sig
  IL-13: Significance @24 hour LPS incubation: no sig
  IL-17A: Significance @24 hour LPS incubation: no sig
  KC/CXCL1: Significance @24 hour LPS incubation: no sig
  LIX: Significance @24 hour LPS incubation: no sig
  MCP-1: Significance @24 hour LPS incubation: no sig
  MIP-2: Significance @24 hour LPS incubation: no sig
  TNF-α: Significance @24 hour LPS incubation: no sig
diet-induced (DIO) mice; DA 92.4 mg/kg gavage BID
  Serum glucose levels: did not show a significant effect
diet-induced (DIO) mice; DA 92.4 mg/kg gavage BID, 1 h after dosing, vs vehicle
  Serum GLP-1 levels at Day 56: significantly increased
diet-induced (DIO) mice; DA 92.4 mg/kg gavage BID, 2 h after dosing, vs vehicle
  Serum GLP-1 levels at Day 7: significantly increased
diet-induced (DIO) mice; DA 92.4 mg/kg gavage BID, compared to vehicle and CQL
  Body weight gain at day 57: significantly reduced
diet-induced (DIO) mice; [5]
  Serum CCK levels at Day 56: significantly increased
  Serum GLP-2 levels at Day 56: significantly increased
  Serum PYY levels at Day 56: significantly increased
  Serum insulin level at Day 28: significantly reduced
diet-induced (DIO) mice; [6]
  Serum LDL levels at day 28: noticeable decrease
  Serum LDL levels at day 56: noticeable decrease
diet-induced (DIO) mice; [7]
  Serum HbA1c level at Day 28: significantly reduced
  Serum HbA1c level at Day 56: considerably increased
diet-induced (DIO) mice; gavage BID (DA 92.4 mg/kg, CQL 50 mg/kg), vs vehicle
  Daily water intake at Day 28: significantly increased
